Read-outs that look alike come from different tables or passages of the source.
Tests used:
[1] = target: T1, Farnesoid X receptor (FXR) ligand binding domain (Homo sapiens, UniProt Q96RI1); assay: Intrinsic tryptophan fluorescence quenching titration
T1 sequence (Q96RI1 203-486): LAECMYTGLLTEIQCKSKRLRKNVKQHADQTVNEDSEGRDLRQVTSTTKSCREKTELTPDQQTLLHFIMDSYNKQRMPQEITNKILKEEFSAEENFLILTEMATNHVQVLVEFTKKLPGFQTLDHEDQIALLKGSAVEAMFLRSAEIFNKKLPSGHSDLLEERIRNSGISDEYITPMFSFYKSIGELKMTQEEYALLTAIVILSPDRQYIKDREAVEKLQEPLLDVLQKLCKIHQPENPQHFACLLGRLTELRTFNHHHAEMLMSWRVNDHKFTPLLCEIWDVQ

[2] = target: T1, Farnesoid X receptor (FXR) ligand binding domain; assay: as above; remark: listed apart in the source

Row | Kd [2] | Structure (SMILES) | Kd [1]
1 | – | CC(C)=CCc1c(O)cc(O)c2c1O[C@H](c1ccc(O)cc1)CC2=O [8-PN, 8-prenylnaringenin] | 2.2 ± 0.05 µM
2 | – | COc1cc(O)c(CC=C(C)C)c2c1C(=O)CC(c1ccc(O)cc1)O2 (stereo not drawn) [IX, isoxanthohumol] | 5.92 ± 0.25 µM
3 | 2.68 ± 0.11 µM | COc1cc(O)c(CC=C(C)C)c(O)c1C(=O)/C=C/c1ccc(O)cc1 [XN, xanthohumol] | –
